Data from US20140235616A1, “PYRAZOLOQUINOLINONE DERIVATIVES, PREPARATION THEREOF AND THERAPEUTIC USE THEREOF” (SANOFI, priority 2011, published 2014).

molecular target: T1, human MetAP2 (Homo sapiens, UniProt P50579); test: MetAP2 enzymatic screening test (isolated enzyme, Met-Pro-Arg-pNa substrate, absorbance at 405 nm); format: biochemical; conditions: read-out: % inhibition hMETAP2 at 100 nM
T1 construct: made in house; host or cells: Sf9 insect cells (baculovirus)
Procedure: The compounds according to the invention underwent biochemical studies in order to determine their capacity to inhibit the enzyme methionine-aminopeptidase2 (enzymatic test on isolated enzyme).
MetAP2 Enzymatic Screening Test
For the enzymatic test, human MetAP2 protein was obtained from a culture supernatant of insect cells (sf9) infected with MetAP2 recombinant baculovirus.
Before performing the experiment, dialysis of the MetAP2 supernatant is performed over 24 hours at 4° C. in a buffer (10 mM Hepes, 100 mM KCl, 10% glycerol, pH 7.4) in the presence of EDTA (1 mM) over the first 12 hours.
The dialysis supernatant is recovered and manganese, used as cofactor, is added to a final concentration of 300 μM.
The enzymatic test is a test in two steps.
Consequently, the second step consists in reacting the peptides cleaved in the preceding step with a second peptidase in order to release the chromophore.

T1 sequence (P50579 whole entry): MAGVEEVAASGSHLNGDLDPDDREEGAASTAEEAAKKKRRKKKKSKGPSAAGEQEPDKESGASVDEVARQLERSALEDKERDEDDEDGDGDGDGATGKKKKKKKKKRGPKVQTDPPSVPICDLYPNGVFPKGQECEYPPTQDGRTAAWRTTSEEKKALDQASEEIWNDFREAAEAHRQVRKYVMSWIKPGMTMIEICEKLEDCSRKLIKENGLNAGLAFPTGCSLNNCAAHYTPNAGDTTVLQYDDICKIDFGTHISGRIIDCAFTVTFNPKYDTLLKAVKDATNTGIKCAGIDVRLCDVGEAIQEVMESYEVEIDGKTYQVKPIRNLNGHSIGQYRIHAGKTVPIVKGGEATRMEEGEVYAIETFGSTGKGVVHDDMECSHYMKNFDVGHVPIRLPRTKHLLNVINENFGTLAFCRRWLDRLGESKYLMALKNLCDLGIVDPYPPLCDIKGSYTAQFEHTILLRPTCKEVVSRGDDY

| Compound | inhibition at 0.1 µM [%] |
| --- | --- |
| COC(=O)Cc1ccccc1-c1ccc2c3[nH]ncc3c(=O)n(CC(F)(F)F)c2c1 [Compound 144, methyl {2-[4-oxo-5-(2,2,2-trifluoroethyl)-4,5-dihydro-1H-pyrazolo[4,3-c]quinolin-7-yl]phenyl}acetate] | 43 |
| O=c1c2cn[nH]c2c2ccc(-c3ccc(F)cn3)cc2n1CC(F)(F)F [Compound 165, 7-(5-fluoropyrid-2-yl)-5-(2,2,2-trifluoroethyl)-1,5-dihydro-4H-pyrazolo[4,3-c]quinolin-4-one] | 37 |
| Nc1ncc(F)cc1-c1ccc2c3[nH]ncc3c(=O)n(CC(F)(F)F)c2c1 [Compound 132, 7-(2-amino-5-fluoropyrid-3-yl)-5-(2,2,2-trifluoroethyl)-1,5-dihydro-4H-pyrazolo[4,3-c]quinolin-4-one] | 46 |
| CCc1ncncc1-c1ccc2c3[nH]ncc3c(=O)n(CC(F)(F)F)c2c1 [Compound 143, 7-(4-ethylpyrimidin-5-yl)-5-(2,2,2-trifluoroethyl)-1,5-dihydro-4H-pyrazolo[4,3-c]quinolin-4-one] | 43 |
| Cc1cc(N)ncc1-c1ccc2c3[nH]ncc3c(=O)n(CC(F)(F)F)c2c1 [Compound 137, 7-(6-amino-4-methylpyrid-3-yl)-5-(2,2,2-trifluoroethyl)-1,5-dihydro-4H-pyrazolo[4,3-c]quinolin-4-one] | 45 |
| CN(C)CCOc1cccc(-c2ccc3c4[nH]ncc4c(=O)n(CC(F)(F)F)c3c2)c1 [Compound 155, 7-[3-(2-dimethylaminoethoxy)phenyl]-5-(2,2,2-trifluoroethyl)-1,5-dihydro-4H-pyrazolo[4,3-c]quinolin-4-one] | 41 |
| COC(=O)c1ccccc1-c1ccc2c3[nH]ncc3c(=O)n(CC(F)(F)F)c2c1 [Compound 156, methyl 2-[4-oxo-5-(2,2,2-trifluoroethyl)-4,5-dihydro-1H-pyrazolo[4,3-c]quinolin-7-yl]benzoate] | 41 |
| CCn1c(=O)c2cn[nH]c2c2ccc(-c3cccc(C(=O)NCCOC)c3)cc21 [Compound 39, 3-(5-ethyl-4-oxo-4,5-dihydro-1H-pyrazolo[4,3-c]quinolin-7-yl)-N-(2-methoxyethyl)benzamide] | 60 |
| O=c1c2cn[nH]c2c2ccc(-c3ccccc3CCO)cc2n1CC(F)(F)F [Compound 131, 7-[2-(2-hydroxy-ethyl)phenyl]-5-(2,2,2-trifluoroethyl)-1,5-dihydro-4H-pyrazolo[4,3-c]quinolin-4-one] | 46 |
| CCn1c(=O)c2cn[nH]c2c2ccc(-c3ccc(F)c(C(N)=O)c3)cc21 [Compound 36, 5-(5-ethyl-4-oxo-4,5-dihydro-1H-pyrazolo[4,3-c]quinolin-7-yl)-2-fluoro-benzamide] | 61 |
| Cc1cc(-n2cnnc2)ncc1-c1ccc2c3[nH]ncc3c(=O)n(CC(F)(F)F)c2c1 [Compound 140, 7-(4-methyl-6-[1,2,4]triazol-4-ylpyrid-3-yl)-5-(2,2,2-trifluoroethyl)-1,5-dihydro-4H-pyrazolo[4,3-c]quinolin-4-one] | 44 |
| CCn1c(=O)c2cn[nH]c2c2ccc(-c3ccc4[nH]ncc4c3)cc21 [Compound 34, 5-ethyl-7-(1H-indazol-5-yl)-1,5-dihydro-4H-pyrazolo[4,3-c]quinolin-4-one] | 62 |
| CCCc1ncncc1-c1ccc2c3[nH]ncc3c(=O)n(CC(F)(F)F)c2c1 [Compound 146, 7-(4-propylpyrimidin-5-yl)-5-(2,2,2-trifluoroethyl)-1,5-dihydro-4H-pyrazolo[4,3-c]quinolin-4-one] | 42 |
| CCn1c(=O)c2cn[nH]c2c2ccc(-c3cnc(N4CCN(C)CC4)nc3)cc21 [Compound 31, 5-ethyl-7-[2-(4-methylpiperazin-1-yl)pyrimidin-5-yl]-1,5-dihydro-4H-pyrazolo[4,3-c]quinolin-4-one] | 64 |
